Experimental data taken from paper PMC4982440, “PDK1-SGK1 Signaling Sustains AKT-Independent mTORC1 Activation and Confers Resistance to PI3Kα Inhibition” (Cancer Cell, 2016).

How the values were obtained:
Type in all cases: biochemical
[1] = target: T1, SGK2 (Homo sapiens, UniProt Q9HBY8); assay: in vitro kinase assay
T1 sequence (Q9HBY8 1-367): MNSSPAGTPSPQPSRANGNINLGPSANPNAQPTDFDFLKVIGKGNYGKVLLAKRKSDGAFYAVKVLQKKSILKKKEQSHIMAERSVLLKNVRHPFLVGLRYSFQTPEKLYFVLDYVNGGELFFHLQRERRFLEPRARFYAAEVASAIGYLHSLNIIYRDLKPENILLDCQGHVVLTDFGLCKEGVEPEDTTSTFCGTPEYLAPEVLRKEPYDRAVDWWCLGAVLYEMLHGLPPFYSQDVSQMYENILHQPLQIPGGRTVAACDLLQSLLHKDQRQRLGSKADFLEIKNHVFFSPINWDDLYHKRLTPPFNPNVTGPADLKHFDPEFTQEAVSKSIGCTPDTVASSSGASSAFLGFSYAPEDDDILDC

[2] = target: T2, SGK3 (Homo sapiens, UniProt Q96BR1); assay: in vitro kinase assay
T2 sequence (Q96BR1 1-496): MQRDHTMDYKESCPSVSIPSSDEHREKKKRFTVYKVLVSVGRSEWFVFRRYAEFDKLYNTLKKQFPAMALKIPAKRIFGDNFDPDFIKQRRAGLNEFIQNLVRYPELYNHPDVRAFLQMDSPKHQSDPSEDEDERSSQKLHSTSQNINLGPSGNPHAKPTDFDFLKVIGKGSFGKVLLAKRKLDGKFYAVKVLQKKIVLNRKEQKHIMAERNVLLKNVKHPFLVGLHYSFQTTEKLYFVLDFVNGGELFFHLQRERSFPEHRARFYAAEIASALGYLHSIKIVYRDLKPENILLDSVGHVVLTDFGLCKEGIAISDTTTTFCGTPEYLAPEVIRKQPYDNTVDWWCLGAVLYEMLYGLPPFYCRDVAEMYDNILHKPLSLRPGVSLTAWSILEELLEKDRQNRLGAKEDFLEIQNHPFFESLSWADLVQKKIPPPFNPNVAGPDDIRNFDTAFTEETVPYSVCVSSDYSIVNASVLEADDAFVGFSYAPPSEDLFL

[3] = target: T3, S6K (Homo sapiens, UniProt P23443); assay: recombinant in vitro kinase assay
T3 construct: gene RPS6KB1; recombinant S6K
T3 sequence (P23443 whole entry): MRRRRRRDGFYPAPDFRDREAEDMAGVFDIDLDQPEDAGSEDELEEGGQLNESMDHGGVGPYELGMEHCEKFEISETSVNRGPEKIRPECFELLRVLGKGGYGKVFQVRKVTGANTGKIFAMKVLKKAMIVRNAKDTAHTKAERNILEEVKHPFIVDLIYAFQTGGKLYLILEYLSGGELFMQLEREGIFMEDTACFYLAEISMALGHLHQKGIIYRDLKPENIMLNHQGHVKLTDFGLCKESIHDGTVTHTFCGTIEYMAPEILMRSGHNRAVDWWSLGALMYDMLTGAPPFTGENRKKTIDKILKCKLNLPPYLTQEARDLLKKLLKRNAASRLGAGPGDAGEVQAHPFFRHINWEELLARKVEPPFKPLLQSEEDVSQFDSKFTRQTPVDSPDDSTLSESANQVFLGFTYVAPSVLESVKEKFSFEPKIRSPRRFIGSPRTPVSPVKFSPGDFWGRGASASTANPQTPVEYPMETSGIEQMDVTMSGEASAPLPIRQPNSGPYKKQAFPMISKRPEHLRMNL

- IC50 [1]: 2.8 nM
- IC50 [2]: 590 nM
- IC50 [3]: 33 nM
SMILES: Nc1n[nH]c2nc(-c3ccc(NS(=O)(=O)c4cccc(Cl)c4Cl)cc3)cnc12 [SGK1-inh]
